Results from PMC8879959, “In Vivo Antistress Effects of Synthetic Flavonoids in Mice: Behavioral and Biochemical Approach” (Molecules, 2022).
Values after ≈ are worked out from the molar mass of the structure shown. Where two headings read alike, the source gives them in different places.

Legend:
[1] = test system: mice; experiment: Biochemical parameters in brain after restraint stress; type: in vivo, Balb/C mice; details: flavonoids 10 mg/kg, standard diazepam 2 mg/kg, 15 days, mean ± SEM
[2] = test system: mice; experiment: Swimming endurance test; type: in vivo, Balb/C mice; details: flavonoids 10 mg/kg, standard diazepam 2 mg/kg IP, 15 days; recorded for 30 min; mean ± SEM, n = 8
Procedure: Animals were divided at random into two groups of 8. Tween 80 (2%) was given to the control group, while animals in each group were treated with 10 mg/kg of each flavonoid. […] All the doses were given constantly for 15 days. On 15th day, one hour after the dose administration, all the animals were allowed to swim in isolation in a glass tank. The time of immobility for each animal was recorded for a period of 30 min [26, 27].

[3] = DPPH free radical scavenging assay; type: biochemical; details: concentration range 6.25–50 μg/mL, absorbance 517 nm
Procedure: Scavenging activities for DPPH and ABTS were calculated and the IC50 was determined.

[4] = test system: mice; experiment: Restraint stress, organ weights; type: in vivo, Balb/C mice; details: restraint stress 2 h; flavonoids 10 mg/kg p.o., standard diazepam 2 mg/kg IP, 15 days; mean ± SEM
Excerpt: (§1) The adhesive tape was removed, and blood samples were collected. After blood collection, the animals were sacrificed, and the brain and vital organs were isolated and weighed.

[5] = test system: acetic acid-induced stress mice; experiment: Chemical induced stress (acetic acid model, writhes); type: in vivo, Balb/C mice
Excerpt: The anti-stress effect of synthesized flavonoids was screened for chemical-induced stress using the acetic acid model. Animals were randomly assigned into two groups of 8. The control group received Tween 80 (2%). […] The treatments in all groups were given persistently for a period of 15 days.

[6] = test system: mice; experiment: Biochemical parameters in blood after restraint stress; type: in vivo, Balb/C mice; details: flavonoids 10 mg/kg, standard diazepam 2 mg/kg, 15 days, mean ± SEM
Excerpt: as §1
After restrain test, blood samples were collected for the assessment of blood glucose, triglycerides and total cholesterol levels, using available commercial kits. […]

[7] = flavonoids 10 mg/kg, standard diazepam 2 mg/kg IP, 15 days; acetic acid i.p. 0.1 mL (6% v/v), writhes within 20 min; mean ± SEM, n = 8
[8] = Mus musculus, ip, 360 h; read-out: Antistress Response (%)

O=c1c(O)c(-c2ccc(C(F)(F)F)cc2)oc2ccccc12 [OF6]
Catalase (brain) [1]: 17.01 ± 0.52 IU/dL
SOD (brain) [1]: 8.03 ± 0.49 IU/dL
TBARS (brain lipid peroxidation) [1]: 18.10 ± 0.51 nmol/g
Immobility Time [2]: 3.34 ± 0.25 min
IC50, scavenging against DPPH [3]: 122.33 ± 1.98 µg/mL (≈ 399 µM)
Weight of Adrenal Gland [4]: 8.11 ± 1.31 mg
Weight of Brain [4]: 403.9 ± 2.239 mg
Weight of Spleen [4]: 179.1 ± 2.30 mg
inhibition in vivo at 10 mg/kg ([5]; Mus musculus, ip, 360 h, read-out: Antistress Response (%)): 66.5%
Number of Writhes [5, 7]: 15.88 ± 2.11
Glucose (blood) [6]: 100.32 ± 1.29
TGs (blood triglycerides) [6]: 44.02 ± 0.30
Total Ch (blood total cholesterol) [6]: 77.02 ± 0.97

COc1ccc(-c2oc3ccccc3c(=O)c2O)cc1 [OF3]
Catalase (brain) [1]: 19.02 ± 0.77 IU/dL
SOD (brain) [1]: 9.58 ± 0.66 IU/dL
TBARS (brain lipid peroxidation) [1]: 17.49 ± 0.61 nmol/g
Immobility Time [2]: 2.33 ± 0.28 min
IC50, scavenging against DPPH [3]: 25.54 ± 1.21 µg/mL (≈ 95.2 µM)
Weight of Adrenal Gland [4]: 6.79 ± 1.10 mg
Weight of Brain [4]: 413.6 ± 2.66 mg
Weight of Spleen [4]: 194.8 ± 2.11 mg
inhibition in vivo at 10 mg/kg [5, 8]: 80.9%
Glucose (blood) [6]: 97.06 ± 1.71
TGs (blood triglycerides) [6]: 43.11 ± 0.36
Total Ch (blood total cholesterol) [6]: 76.09 ± 0.64

O=c1cc(-c2ccc(C(F)(F)F)cc2)oc2ccccc12 [F6]
Catalase (brain) [1]: 17.36 ± 0.62 IU/dL
SOD (brain) [1]: 8.13 ± 0.51 IU/dL
TBARS (brain lipid peroxidation) [1]: 18.96 ± 0.60 nmol/g
Immobility Time [2]: 3.41 ± 0.23 min
IC50, scavenging against DPPH [3]: 174.24 ± 2.71 µg/mL (≈ 600 µM)
Weight of Adrenal Gland [4]: 8.09 ± 1.77 mg
Weight of Brain [4]: 408.3 ± 2.60 mg
Weight of Spleen [4]: 171.1 ± 2.40 mg
inhibition in vivo at 10 mg/kg [5, 8]: 64.1%
Number of Writhes [5, 7]: 17.01 ± 1.89
Glucose (blood) [6]: 102.09 ± 1.62
TGs (blood triglycerides) [6]: 47.26 ± 0.44
Total Ch (blood total cholesterol) [6]: 82.01 ± 0.79
